37 compounds from ChEMBL document CHEMBL3286191, “Exploring structural motifs necessary for substrate binding in the active site of Escherichia coli pantothenate kinase” (Bioorg Med Chem, 2014) can be followed below.

Each structure is given as a SMILES string. The source made the active and inactive calls. No cut-off for these calls is given here. Where only a bound is given, the exact number is not on record here.

In experiment [1] the test system is Escherichia coli. As to the kind of experiment: Activity of purified Escherichia coli pantothenate kinase by spectrophotometry.
In experiment [2] the test system is Escherichia coli. As to the kind of experiment: Ratio of kcat to Km for purified Escherichia coli pantothenate kinase by spectrophotometry.
For experiment [3], the system named is Escherichia coli. As to the kind of experiment: Activity of purified Escherichia coli pantothenate kinase up to 1 uM by spectrophotometry.
The test system of experiment [4] is Escherichia coli. As to the kind of experiment: Inhibition of purified Escherichia coli pantothenate kinase using pantothenate as substrate at 0.625 to 20 mM by spectrophotometry.

For `C#CC[C@](C)(CO)[C@@H](O)C(=O)NCCC(=O)NCCCCC`, in experiment [1], the Km is 110 µM and the kcat was 1.04 s⁻¹. In addition, the kcat/Km in experiment [2] came out at 9 mM⁻¹ s⁻¹.
On to `CC(C)(CO)[C@@H](O)C(=O)NCCC(=O)NCCCc1ccccc1`, for which, in experiment [1], the Km was determined as 32 µM and the kcat was 1.13 s⁻¹. Besides, the kcat/Km in experiment [2] worked out at 35 mM⁻¹ s⁻¹.
For the compound `CC(C)(CO)[C@@H](O)C(=O)NCCCOc1cc(Cl)ccc1Oc1ccc(Cl)cc1Cl`, in experiment [3], the outcome was inactive. For the same compound, the inhibition entry in experiment [4] is “inactive”.
As for `CC(C)(CO)[C@@H](O)C(=O)NCCC(=O)NCCN1CCNCC1`, in experiment [1], the Km is more than 1000 µM and the kcat amounted to 0.75 s⁻¹. The kcat/Km in experiment [2] turned out to be 0.3 mM⁻¹ s⁻¹.
Turning to `CC(C)(CO)[C@@H](O)C(=O)NCCC(=O)NCc1ccccn1`, in experiment [1], the Km stood at 50 µM and the kcat turned out to be 1.02 s⁻¹. For the same compound, the kcat/Km in experiment [2] stood at 20 mM⁻¹ s⁻¹.
In the case of `CCCCCNC(=O)CNC(=O)CCNC(=O)[C@H](O)C(C)(C)CO`, in experiment [1], the Km came out at 120 µM and the kcat came to 1.12 s⁻¹. Besides, the kcat/Km in experiment [2] came out at 10 mM⁻¹ s⁻¹.
Consider `CC(C)(CO)[C@@H](O)C(=O)NCCC(=O)NCCc1ccccn1`, for which, in experiment [1], the Km amounted to 110 µM and the catalytic constant (kcat) turned out to be 1.15 s⁻¹. For the same compound, the kcat/Km in experiment [2] came to 11 mM⁻¹ s⁻¹.
Take `CCCCCNC(=O)CCNC(=O)[C@H](O)[C@](C)(CC)CO`: in experiment [1], the Km came out at 230 µM and the kcat was 1.17 s⁻¹. For the same compound, the kcat/Km in experiment [2] worked out at 5.1 mM⁻¹ s⁻¹.
With `C=CCC[C@](C)(CO)[C@@H](O)C(=O)NCCC(=O)NCCCCC`, the outcome in experiment [3] was inactive. Further, the inhibition result in experiment [4] was “inactive”.
As to `CC(C)(CO)[C@@H](O)C(=O)NCCC(=O)NCc1ccncc1`, in experiment [1], the Km was found to be 130 µM and the kcat is 0.94 s⁻¹. For the same compound, the kcat/Km in experiment [2] came to 7 mM⁻¹ s⁻¹.
Consider `CC(C)(CO)[C@@H](O)C(=O)NCCC(=O)NCCCN1CCOCC1`, for which, in experiment [1], the Km worked out at 350 µM and the kcat was 1.03 s⁻¹. Besides, in experiment [2], the kcat/Km came to 2.9 mM⁻¹ s⁻¹.
As to `CC(C)(CO)[C@@H](O)C(=O)NCCC(=O)N1Cc2ccccc2C1`, in experiment [1], the Km came to 200 µM and the kcat was 0.45 s⁻¹. Also, the kcat/Km in experiment [2] is 1.9 mM⁻¹ s⁻¹.
With `CC(C)(CO)[C@@H](O)C(=O)NCCC(=O)Nc1cc(Cl)ccc1Oc1ccc(Cl)cc1Cl`, in experiment [3], the outcome was inactive. In addition, the inhibition result in experiment [4] is “inactive”.
Take `CC(C)(CO)[C@@H](O)C(=O)NCCCNC(=N)Nc1ccc(Cl)cc1`: in experiment [3], the outcome was inactive. In addition, in experiment [4], the inhibition entry was “inactive”.
Regarding `Cc1cccnc1NC(=O)CCNC(=O)[C@H](O)C(C)(C)CO`, in experiment [1], the Km worked out at 39 µM and the kcat was determined as 0.78 s⁻¹. In experiment [2], the kcat/Km is 20 mM⁻¹ s⁻¹.
Regarding `CCCCCNC(CNC(=O)[C@H](O)C(C)(C)CO)C(=O)O` (some centres not stated), in experiment [1], the Km amounted to 700 µM and the kcat is 0.23 s⁻¹. In addition, the kcat/Km in experiment [2] was 0.3 mM⁻¹ s⁻¹.
Turning to `CC(C)(CO)[C@@H](O)C(=O)NCCC(=O)Nc1ccccc1`, in experiment [1], the Km worked out at 43 µM and the kcat is 1.02 s⁻¹. Moreover, the kcat/Km in experiment [2] was 24 mM⁻¹ s⁻¹.
Take `CC(C)(CO)[C@@H](O)C(=O)NCCC(=O)NCc1ccccc1`: in experiment [1], the Km stood at 67 µM and the kcat amounted to 1.15 s⁻¹. Moreover, in experiment [2], the kcat/Km stood at 17 mM⁻¹ s⁻¹.
Take `CC(C)(CO)[C@@H](O)C(=O)NCCS(=O)(=O)O`: the result in experiment [3] was inactive. Further, the inhibition entry in experiment [4] is “inactive”.
Take `CN(C)CCCNCCCNC(=O)CCNC(=O)[C@H](O)C(C)(C)CO`: the outcome in experiment [3] was inactive. The inhibition result in experiment [4] is “inactive”.
Turning to `CC(C)(CO)[C@@H](O)C(=O)NCCC(=O)N1CCc2ccccc21`, in experiment [1], the Km amounted to 400 µM and the kcat came to 0.18 s⁻¹. Moreover, in experiment [2], the kcat/Km turned out to be 0.4 mM⁻¹ s⁻¹.
Consider `CC(C)(CO)[C@@H](O)C(=O)NCCNC(=N)N`, for which the result in experiment [3] was inactive. In experiment [4], the inhibition entry is “inactive”.
For `CCCCCNC(=O)CCNC(=O)[C@H](O)C(C)(C)CO`, in experiment [1], the Km was 36 µM and the kcat was found to be 0.93 s⁻¹. In experiment [2], the kcat/Km came out at 26 mM⁻¹ s⁻¹.
With `CN(C)CCCNC(=O)CCNC(=O)[C@H](O)C(C)(C)CO`, the result in experiment [3] was inactive. The inhibition result in experiment [4] is “inactive”.
Turning to `CC(C)(CO)[C@@H](O)C(=O)NCCC(=O)NCCS`, in experiment [1], the Km worked out at 60 µM and the kcat came out at 1.03 s⁻¹. Moreover, the kcat/Km in experiment [2] is 17 mM⁻¹ s⁻¹.
As for `CCCC(=O)NCCNC(=O)CCNC(=O)[C@H](O)C(C)(C)CO`, in experiment [1], the Km was 240 µM and the kcat came out at 1.09 s⁻¹. For the same compound, the kcat/Km in experiment [2] was 4.5 mM⁻¹ s⁻¹.
For `CC(C)(CO)[C@@H](O)C(=O)NCCC(=O)O`, in experiment [1], the Km is 21 µM and the catalytic constant (kcat) is 1.07 s⁻¹. In addition, the kcat/Km in experiment [2] worked out at 50 mM⁻¹ s⁻¹.
Turning to `CCCCCNC(=O)CCNC(=O)[C@H](O)C(CC)(CC)CO`, in experiment [1], the Km worked out at 1200 µM and the kcat was 0.28 s⁻¹. Further, in experiment [2], the kcat/Km was 0.2 mM⁻¹ s⁻¹.
The matching figures for `CC(C)(CO)[C@@H](O)C(=O)NCCC(=O)NCC1CCNCC1`: more than 1000 µM, 1.19 s⁻¹ and 0.5 mM⁻¹ s⁻¹.
`CCCCCn1cc(CNC(=O)[C@H](O)C(C)(C)CO)nn1`: in experiment [1], the Km stood at 190 µM and the kcat was found to be 0.96 s⁻¹. Further, the kcat/Km in experiment [2] worked out at 5.1 mM⁻¹ s⁻¹.
Regarding `CCCCCNC(=O)CNCCCNC(=O)[C@H](O)C(C)(C)CO`, in experiment [1], the Km was determined as 1200 µM and the kcat was 0.13 s⁻¹. Besides, in experiment [2], the kcat/Km was 0.1 mM⁻¹ s⁻¹.
In the case of `CCCCCNC(=O)CCNC(=O)[C@H](O)[C@@](C)(CO)CCCO`, the result in experiment [3] was inactive. Moreover, the inhibition result in experiment [4] is “inactive”.
Take `CCCc1cn(CCCNC(=O)[C@H](O)C(C)(C)CO)nn1`: in experiment [1], the Km amounted to 1000 µM and the kcat is 0.49 s⁻¹. In addition, the kcat/Km in experiment [2] stood at 0.5 mM⁻¹ s⁻¹.
For `CC(C)(CO)[C@@H](O)C(=O)NCCC(=O)NCCCn1ccnc1`, in that order: 22 µM, 0.46 s⁻¹ and 21 mM⁻¹ s⁻¹.
Regarding `C=CC[C@](C)(CO)[C@@H](O)C(=O)NCCC(=O)NCCCCC`, in experiment [1], the Km stood at 590 µM and the kcat worked out at 0.89 s⁻¹. In addition, the kcat/Km in experiment [2] was 1.5 mM⁻¹ s⁻¹.
With `CC(C)(CO)[C@@H](O)C(=O)NCCC(=O)NCc1cccnc1`, in experiment [1], the Km was 33 µM and the kcat is 1.24 s⁻¹. The kcat/Km in experiment [2] stood at 38 mM⁻¹ s⁻¹.
As for `CC(C)(CO)[C@@H](O)C(=O)NCCC(=O)Nc1ccncn1`, in experiment [1], the Km was determined as 450 µM and the kcat amounted to 1.44 s⁻¹. The kcat/Km in experiment [2] was found to be 3.2 mM⁻¹ s⁻¹.

Broadly, the Km is the substrate concentration at which the rate is half of its maximum. The term kcat denotes the number of substrate molecules converted per active site and unit of time at saturation. In general, kcat/Km refers to the turnover number divided by the Michaelis constant.
